What follows are compounds tested against T1, BTK (Homo sapiens, UniProt Q06187) (assay: BTK degradative activity in a RAMOS cell line (Western blot)). Conditions: 6 hours after administration, read-out: RAMOS BTK Degradation DC50.
T1 construct: BTK Degradative Activity of Exemplary Compounds of the Present Disclosure in a RAMOS Cell Line; host or cells: RAMOS
Type: cell-based
Procedure: RAMOS (ATCC) cells were plated in 24-well plates at 8×10^5 cells/well in the RPMI growth medium containing 10% heat-inactivated FBS and 1× Penicillin Streptomycin, and then incubated at 37° C. overnight. The following day, the test compound was administered to the cells by using 1000× compound stock solution prepared in DMSO at various concentrations. After administration of the compound, the cells were then incubated at 37° C. for 6 hours.
Upon completion, the cells were collected by centrifugation and lysed in Laemmli sample buffer (1×; VWR International). Proteins in cell lysate were separated by SDS-PAGE and transferred to Odyssey nitrocellulose membranes (Licor) with Iblot® dry blotting transfer system (ThermoFisher). Nonspecific binding was blocked by incubating membranes with Intercept Blocking Buffer (Licor) for 1 hour at room temperature with gentle shaking. The membranes were then incubated overnight at 4° C. with primary antibodies anti-BTK (Cell signaling, cat. #8547) and anti-GAPDH (Cell signaling, cat. #5179) diluted in Intercept Blocking Buffer containing 0.1% Tween 20. After washing 3 times with TBS-T, the membranes were incubated with IRDye® 800CW goat anti-mouse IgG (1:20,000, Licor) or IRDye® 800CW goat anti-rabbit IgG (1:20,000, Licor) for 1 hour. After TBS-T washes, membranes were rinsed in TBS and scanned on Odyssey® CLx Imaging System (Licor). The bands were quantified using Image Studio™ Software (Licor).
Table 3 summarizes the BTK degradative activity of exemplary compounds of the present disclosure in a RAMOS cell line 6 hours after administration. The DC50 values (i.e., the concentration of test compound at which 50% of the target protein is degraded) were calculated. A designation of “A” corresponds to a DC50 value less than 10 nM. A designation of “B” corresponds to a DC50 value greater than or equal to 10 nM and less than 100 nM. A designation of “C” corresponds to a DC50 value greater than or equal to 100 nM.

T1 sequence (Q06187 whole entry): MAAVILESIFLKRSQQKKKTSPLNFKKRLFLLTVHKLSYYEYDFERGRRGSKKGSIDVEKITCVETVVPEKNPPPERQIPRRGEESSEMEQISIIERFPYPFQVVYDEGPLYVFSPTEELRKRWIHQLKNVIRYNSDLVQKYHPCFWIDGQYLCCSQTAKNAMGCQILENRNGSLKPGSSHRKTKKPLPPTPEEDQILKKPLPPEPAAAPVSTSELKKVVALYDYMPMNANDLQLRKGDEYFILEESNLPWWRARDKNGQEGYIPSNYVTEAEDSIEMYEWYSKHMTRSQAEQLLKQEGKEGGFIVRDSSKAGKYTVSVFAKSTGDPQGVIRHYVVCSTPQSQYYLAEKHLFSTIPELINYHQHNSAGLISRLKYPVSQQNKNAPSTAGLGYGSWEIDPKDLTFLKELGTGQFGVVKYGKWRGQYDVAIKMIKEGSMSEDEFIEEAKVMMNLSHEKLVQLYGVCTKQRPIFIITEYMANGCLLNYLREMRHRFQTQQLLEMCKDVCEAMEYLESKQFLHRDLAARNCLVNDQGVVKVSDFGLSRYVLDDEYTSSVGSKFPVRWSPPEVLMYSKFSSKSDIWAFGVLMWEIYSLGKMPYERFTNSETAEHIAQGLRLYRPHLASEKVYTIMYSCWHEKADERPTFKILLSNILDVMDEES

`O=C1CCC(N2C(=O)c3ccc(OCCCCCCCN4CCN(c5ccc(C(=O)N6CCC[C@@H](Nc7ncnc8[nH]cc(C(=O)c9ccc(Oc%10ccccc%10)cc9Cl)c78)C6)cn5)CC4)cc3C2=O)C(=O)N1` (stereo partly drawn) [Compound 1, 5-((7-(4-(5-((R)-3-((5-(2-chloro-4-phenoxybenzoyl)-7H-pyrrolo [2,3-d]pyrimidin-4-yl)amino)piperidine-1-carbonyl)pyridin-2-yl)piperazin-1-yl)heptyl)oxy)-2-(2,6-dioxopiperidin-3-yl)isoindoline-1,3-dione] and `O=C1CCC(N2C(=O)c3ccc(OCCCCCCN4CCN(c5ccc(C(=O)N6CCC[C@@H](Nc7ncnc8[nH]cc(C(=O)c9ccc(Oc%10ccccc%10)cc9Cl)c78)C6)cn5)CC4)cc3C2=O)C(=O)N1` (stereo partly drawn) [Compound 3, 5-((6-(4-(5-((R)-3-((5-(2-chloro-4-phenoxybenzoyl)-7H-pyrrolo [2,3-d]pyrimidin-4-yl)amino)piperidine-1-carbonyl)pyridin-2-yl)piperazin-1-yl)hexyl)oxy)-2-(2,6-dioxopiperidin-3-yl)isoindoline-1,3-dione] cannot be ordered by DC50: ≥ 100 nM for the first, ≥ 100 nM for the second.

`O=C1CCC(N2C(=O)c3ccc(N4CCN(c5ccc(C(=O)N6CCC[C@@H](Nc7ncnc8[nH]cc(C(=O)c9ccc(Oc%10ccccc%10)cc9Cl)c78)C6)cn5)CC4)cc3C2=O)C(=O)N1` (stereo partly drawn) [Compound 2, 5-(4-(5-((R)-3-((5-(2-chloro-4-phenoxybenzoyl)-7H-pyrrolo[2,3-d]pyrimidin-4-yl)amino)piperidine-1-carbonyl)pyridin-2-yl)piperazin-1-yl)-2-(2,6-dioxopiperidin-3-yl)isoindoline-1,3-dione] and `O=C1CCC(N2C(=O)c3ccc(N4CCN(Cc5ccc(C(=O)N6CCC[C@@H](Nc7ncnc8[nH]cc(C(=O)c9ccc(Oc%10ccccc%10)cc9Cl)c78)C6)cn5)CC4)cc3C2=O)C(=O)N1` (stereo partly drawn) [Compound 9, 5-(4-((5-((R)-3-((5-(2-chloro-4-phenoxybenzoyl)-7H-pyrrolo[2,3-d]pyrimidin-4-yl)amino)piperidine-1-carbonyl)pyridin-2-yl)methyl)piperazin-1-yl)-2-(2,6-dioxopiperidin-3-yl)isoindoline-1,3-dione] cannot be ordered by DC50: ≥ 100 nM for the first, 10 to 100 nM for the second.

`O=C1CCC(N2C(=O)c3ccc(OCCCN4CCN(c5ccc(C(=O)N6CCC[C@@H](Nc7ncnc8[nH]cc(C(=O)c9ccc(Oc%10ccccc%10)cc9Cl)c78)C6)cn5)CC4)cc3C2=O)C(=O)N1` (stereo partly drawn) [Compound 4, 5-(3-(4-(5-((R)-3-((5-(2-chloro-4-phenoxybenzoyl)-7H-pyrrolo [2,3-d]pyrimidin-4-yl)amino)piperidine-1-carbonyl)pyridin-2-yl)piperazin-1-yl)propoxy)-2-(2,6-dioxopiperidin-3-yl)isoindoline-1,3-dione] and `O=C1CCC(N2C(=O)c3ccc(OCCN4CCN(c5ccc(C(=O)N6CCC[C@@H](Nc7ncnc8[nH]cc(C(=O)c9ccc(Oc%10ccccc%10)cc9Cl)c78)C6)cn5)CC4)cc3C2=O)C(=O)N1` (stereo partly drawn) [Compound 5, 5-(2-(4-(5-((R)-3-((5-(2-chloro-4-phenoxybenzoyl)-7H-pyrrolo[2,3-d]pyrimidin-4-yl)amino)piperidine-1-carbonyl)pyridin-2-yl)piperazin-1-yl)ethoxy)-2-(2,6-dioxopiperidin-3-yl)isoindoline-1,3-dione] cannot be ordered by DC50: ≥ 100 nM for the first, ≥ 100 nM for the second.

`O=C1CCC(N2C(=O)c3ccc(OCCCCCN4CCN(c5ccc(C(=O)N6CCC[C@@H](Nc7ncnc8[nH]cc(C(=O)c9ccc(Oc%10ccccc%10)cc9Cl)c78)C6)cn5)CC4)cc3C2=O)C(=O)N1` (stereo partly drawn) [Compound 6, 5-((5-(4-(5-((R)-3-((5-(2-chloro-4-phenoxybenzoyl)-7H-pyrrolo [2,3-d]pyrimidin-4-yl)amino)piperidine-1-carbonyl)pyridin-2-yl)piperazin-1-yl)pentyl)oxy)-2-(2,6-dioxopiperidin-3-yl)isoindoline-1,3-dione] and `O=C1CCC(N2C(=O)c3ccc(N4CCN(CCCCCC(=O)N5CCC[C@@H](Nc6ncnc7[nH]cc(C(=O)c8ccc(Oc9ccccc9)cc8Cl)c67)C5)CC4)cc3C2=O)C(=O)N1` (stereo partly drawn) [Compound 7, 5-(4-(6-((R)-3-((5-(2-chloro-4-phenoxybenzoyl)-7H-pyrrolo[2,3-d]pyrimidin-4-yl)amino)piperidin-1-yl)-6-oxohexyl)piperazin-1-yl)-2-(2,6-dioxopiperidin-3-yl)isoindoline-1,3-dione] cannot be ordered by DC50: ≥ 100 nM for the first, 10 to 100 nM for the second.

`O=C1CCC(N2C(=O)c3ccc(N4CCN(CCCCCCC(=O)N5CCC[C@@H](Nc6ncnc7[nH]cc(C(=O)c8ccc(Oc9ccccc9)cc8Cl)c67)C5)CC4)cc3C2=O)C(=O)N1` (stereo partly drawn) [Compound 8] and `O=C1CCC(N2C(=O)c3ccc(N4CCN(CCCCC(=O)N5CCC[C@@H](Nc6ncnc7[nH]cc(C(=O)c8ccc(Oc9ccccc9)cc8Cl)c67)C5)CC4)cc3C2=O)C(=O)N1` (stereo partly drawn) [Compound 11, 5-(4-(5-((R)-3-((5-(2-chloro-4-phenoxybenzoyl)-7H-pyrrolo[2,3-d]pyrimidin-4-yl)amino)piperidin-1-yl)-5-oxopentyl)piperazin-1-yl)-2-(2,6-dioxopiperidin-3-yl)isoindoline-1,3-dione] fall in the same range of DC50: 10 to 100 nM for the first, 10 to 100 nM for the second.

`O=C1CCC(N2C(=O)c3ccc(N4CCN(CC5CCN(c6ccc(C(=O)N7CCC[C@@H](Nc8ncnc9[nH]cc(C(=O)c%10ccc(Oc%11ccccc%11)cc%10Cl)c89)C7)cn6)CC5)CC4)cc3C2=O)C(=O)N1` (stereo partly drawn) [Compound 10, 5-(4-((1-(5-((R)-3-((5-(2-chloro-4-phenoxybenzoyl)-7H-pyrrolo[2,3-d]pyrimidin-4-yl)amino)piperidine-1-carbonyl)pyridin-2-yl)piperidin-4-yl)methyl)piperazin-1-yl)-2-(2,6-dioxopiperidin-3-yl)isoindoline-1,3-dione] and `O=C1CCC(N2C(=O)c3ccc(N4CCN(CCCCCCN5CCC[C@@H](Nc6ncnc7[nH]cc(C(=O)c8ccc(Oc9ccccc9)cc8Cl)c67)C5)CC4)cc3C2=O)C(=O)N1` (stereo partly drawn) [Compound 15, 5-(4-(6-((R)-3-((5-(2-chloro-4-phenoxybenzoyl)-7H-pyrrolo[2,3-d]pyrimidin-4-yl)amino)piperidin-1-yl)hexyl)piperazin-1-yl)-2-(2,6-dioxopiperidin-3-yl)isoindoline-1,3-dione] cannot be ordered by DC50: ≥ 100 nM for the first, ≥ 100 nM for the second.

`O=C1CCC(N2C(=O)c3ccc(N4CCN(CCCCCCCN5CCC(Nc6ncnc7[nH]cc(C(=O)c8ccc(Oc9ccccc9)cc8Cl)c67)CC5)CC4)cc3C2=O)C(=O)N1` (stereo not drawn) [Compound 12, 5-(4-(7-(4-((5-(2-chloro-4-phenoxybenzoyl)-7H-pyrrolo[2,3-d]pyrimidin-4-yl)amino)piperidin-1-yl)heptyl)piperazin-1-yl)-2-(2,6-dioxopiperidin-3-yl)isoindoline-1,3-dione] and `O=C1CCC(N2C(=O)c3ccc(N4CCN(CCCCCCN5CCC(Nc6ncnc7[nH]cc(C(=O)c8ccc(Oc9ccccc9)cc8Cl)c67)CC5)CC4)cc3C2=O)C(=O)N1` (stereo not drawn) [Compound 18, 5-(4-(6-(4-((5-(2-chloro-4-phenoxybenzoyl)-7H-pyrrolo[2,3-d]pyrimidin-4-yl)amino)piperidin-1-yl)hexyl)piperazin-1-yl)-2-(2,6-dioxopiperidin-3-yl)isoindoline-1,3-dione] cannot be ordered by DC50: 10 to 100 nM for the first, ≥ 100 nM for the second.

First: O=C1CC[C@H](N2Cc3cc(N4CCN(CCCCCC(=O)N5CCC(Nc6ncnc7[nH]cc(C(=O)c8ccc(Oc9ccccc9)cc8Cl)c67)CC5)CC4)ccc3C2=O)C(=O)N1 [Compound 13, (S)-3-(5-(4-(6-(4-((5-(2-chloro-4-phenoxybenzoyl)-7H-pyrrolo[2,3-d]pyrimidin-4-yl)amino)piperidin-1-yl)-6-oxohexyl)piperazin-1-yl)-1-oxoisoindolin-2-yl)piperidine-2,6-dione]
Second: O=C1CC[C@H](N2Cc3cc(N4CCN(CCCCCC(=O)N5CCC[C@@H](Nc6ncnc7[nH]cc(C(=O)c8ccc(Oc9ccccc9)cc8Cl)c67)C5)CC4)ccc3C2=O)C(=O)N1 [Compound 16, (S)-3-(5-(4-(6-((R)-3-((5-(2-chloro-4-phenoxybenzoyl)-7H-pyrrolo[2,3-d]pyrimidin-4-yl)amino)piperidin-1-yl)-6-oxohexyl)piperazin-1-yl)-1-oxoisoindolin-2-yl)piperidine-2,6-dione]
The DC50 of the first is lower: < 10 nM for the first, 10 to 100 nM for the second.

`O=C1CC[C@H](N2Cc3cc(N4CCN(CCCCC(=O)N5CCC[C@@H](Nc6ncnc7[nH]cc(C(=O)c8ccc(Oc9ccccc9)cc8Cl)c67)C5)CC4)ccc3C2=O)C(=O)N1` [Compound 14, (S)-3-(5-(4-(5-((R)-3-((5-(2-chloro-4-phenoxybenzoyl)-7H-pyrrolo[2,3-d]pyrimidin-4-yl)amino)piperidin-1-yl)-5-oxopentyl)piperazin-1-yl)-1-oxoisoindolin-2-yl)piperidine-2,6-dione] and `O=C1CCC(N2Cc3cc(N4CCN(CCCCCCC(=O)N5CCC[C@@H](Nc6ncnc7[nH]cc(C(=O)c8ccc(Oc9ccccc9)cc8Cl)c67)C5)CC4)ccc3C2=O)C(=O)N1` (stereo partly drawn) [Compound 17, 3-(5-(4-(7-((R)-3-((5-(2-chloro-4-phenoxybenzoyl)-7H-pyrrolo[2,3-d]pyrimidin-4-yl)amino)piperidin-1-yl)-7-oxoheptyl)piperazin-1-yl)-1-oxoisoindolin-2-yl)piperidine-2,6-dione] fall in the same range of DC50: 10 to 100 nM for the first, 10 to 100 nM for the second.
